Values of other authors as cited in patent US20250312313A1, “PHARMACEUTICAL COMPOSITION FOR SUBLINGUAL ADMINISTRATION OF CLONIDINE” (NOVUMGEN LIMITED, priority 2022, published 2025).

Conditions: oral

For Clc1cccc(Cl)c1N=C1NCCN1 [Clonidine], which “absorption from the gastrointestinal tract” value is on record?
The value was “almost completely absorbed”.
